Test in all cases: relative viability (nuclei count vs DMSO), 5 days (fraction); higher = more cells survive
Compound in the test “Bleomycin + Luminespib”: CC1=C(N=C(N=C1N)[C@H](CC(=O)N)NC[C@@H](C(=O)N)N)C(=O)N[C@@H]([C@H](C2=CN=CN2)OC3C(C(C(C(O3)CO)O)O)OC4C(C(C(C(O4)CO)O)OC(=O)N)O)C(=O)N[C@H](C)[C@H]([C@H](C)C(=O)N[C@@H]([C@@H](C)O)C(=O)NCCC5=NC(=CS5)C6=NC(=CS6)C(=O)NCCC[S+](C)C)O [Bleomycin] + CCNC(=O)c1noc(-c2cc(C(C)C)c(O)cc2O)c1-c1ccc(CN2CCOCC2)cc1 [Luminespib] (partner 0.01 µM)
Particulars: main component drawn. The procedure, abridged:
(§1)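 Medians of duplicate plates are given as relative viability. That measure is the nuclei count in treated wells divided by the count in vehicle wells. Counts were taken on 4× images of lung cancer cell lines in 1536-well plates, 5 days after pin-tool dosing the day after seeding with one drug alone or a fixed anchor-drug dose plus five library-drug doses (not always all listed) in √10 steps.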

Compound in the test “Etoposide + Trametinib”: COc1cc([C@@H]2c3cc4c(cc3[C@@H](O[C@@H]3O[C@@H]5CO[C@@H](C)O[C@H]5[C@H](O)[C@H]3O)[C@H]3COC(=O)[C@H]23)OCO4)cc(OC)c1O [Etoposide] + CC(=O)Nc1cccc(-n2c(=O)n(C3CC3)c(=O)c3c(Nc4ccc(I)cc4F)n(C)c(=O)c(C)c32)c1 [Trametinib] (partner 0.02 µM)
The procedure, abridged:
as §1

Compound in the test “Etoposide + Linsitinib”: COc1cc([C@@H]2c3cc4c(cc3[C@@H](O[C@@H]3O[C@@H]5CO[C@@H](C)O[C@H]5[C@H](O)[C@H]3O)[C@H]3COC(=O)[C@H]23)OCO4)cc(OC)c1O [Etoposide] + C[C@]1(O)C[C@@H](c2nc(-c3ccc4ccc(-c5ccccc5)nc4c3)c3c(N)nccn32)C1 [Linsitinib] (partner 1 µM)
The procedure, abridged: as §1

Compound in the test “Etoposide + Decitabine”: COc1cc([C@@H]2c3cc4c(cc3[C@@H](O[C@@H]3O[C@@H]5CO[C@@H](C)O[C@H]5[C@H](O)[C@H]3O)[C@H]3COC(=O)[C@H]23)OCO4)cc(OC)c1O [Etoposide] + Nc1ncn([C@H]2C[C@H](O)[C@@H](CO)O2)c(=O)n1 [Decitabine] (partner 2 µM)
Put shortly: as §1

On to LOU-NH91, for which the relative viability turned out to be 0.307 with Bleomycin + Luminespib (first compound 0.01 µM); 0.315 with Bleomycin + Luminespib (first compound 0.03162 µM); 0.307 with Bleomycin + Luminespib (first compound 0.1 µM); 0.282 in the test with Bleomycin + Luminespib (first compound 0.3162 µM); 0.298 in the test with Bleomycin + Luminespib (first compound 1 µM); 0.731 in the test with Etoposide + Trametinib (first compound 0.01 µM). The relative viability in the test with Etoposide + Trametinib (first compound 0.03162 µM) is 0.817; with Etoposide + Trametinib (first compound 0.1 µM), 0.659; with Etoposide + Trametinib (first compound 0.3162 µM) it was 0.758; in the test with Etoposide + Trametinib (first compound 1 µM), 0.552; with Etoposide + Linsitinib (first compound 0.01 µM), 0.892; with Etoposide + Linsitinib (first compound 0.03162 µM), 0.943. The relative viability with Etoposide + Linsitinib (first compound 0.1 µM) stood at 0.702; with Etoposide + Linsitinib (first compound 0.3162 µM) it was 0.728; with Etoposide + Linsitinib (first compound 1 µM) it was 0.538; with Etoposide + Decitabine (first compound 0.01 µM) it was 0.783; with Etoposide + Decitabine (first compound 0.03162 µM), 0.876; in the test with Etoposide + Decitabine (first compound 0.1 µM), 0.778. Moreover, the relative viability came to 0.766 with Etoposide + Decitabine (first compound 0.3162 µM) and 0.54 in the test with Etoposide + Decitabine (first compound 1 µM).
As to LU99A, the relative viability was determined as 0.297 in the test with Bleomycin + Luminespib (first compound 0.01 µM); 0.283 in the test with Bleomycin + Luminespib (first compound 0.03162 µM); 0.256 with Bleomycin + Luminespib (first compound 0.1 µM); 0.172 in the test with Bleomycin + Luminespib (first compound 0.3162 µM); 0.162 in the test with Bleomycin + Luminespib (first compound 1 µM); 0.493 with Etoposide + Trametinib (first compound 0.01 µM). In addition, the relative viability with Etoposide + Trametinib (first compound 0.03162 µM) was 0.672; with Etoposide + Trametinib (first compound 0.1 µM) it was 0.391; with Etoposide + Trametinib (first compound 0.3162 µM), 0.312; with Etoposide + Trametinib (first compound 1 µM), 0.206; with Etoposide + Linsitinib (first compound 0.01 µM) it was 0.495; with Etoposide + Linsitinib (first compound 0.03162 µM), 0.614. Besides, the relative viability with Etoposide + Linsitinib (first compound 0.1 µM) amounted to 0.333; with Etoposide + Linsitinib (first compound 0.3162 µM) it was 0.264; in the test with Etoposide + Linsitinib (first compound 1 µM) it was 0.201; in the test with Etoposide + Decitabine (first compound 0.01 µM), 0.893; with Etoposide + Decitabine (first compound 0.03162 µM), 0.928; in the test with Etoposide + Decitabine (first compound 0.1 µM), 0.504. The relative viability in the test with Etoposide + Decitabine (first compound 0.3162 µM) turned out to be 0.473; with Etoposide + Decitabine (first compound 1 µM) it was 0.246.
Turning to LXF-289, the relative viability worked out at 0.568 with Bleomycin + Luminespib (first compound 0.01 µM); 0.472 in the test with Bleomycin + Luminespib (first compound 0.03162 µM); 0.49 in the test with Bleomycin + Luminespib (first compound 0.1 µM); 0.133 in the test with Bleomycin + Luminespib (first compound 0.3162 µM); 0.093 in the test with Bleomycin + Luminespib (first compound 1 µM); 0.742 with Etoposide + Trametinib (first compound 0.01 µM). For the same cell line, the relative viability with Etoposide + Trametinib (first compound 0.03162 µM) came out at 0.705; with Etoposide + Trametinib (first compound 0.1 µM) it was 0.71; with Etoposide + Trametinib (first compound 0.3162 µM), 0.531; with Etoposide + Trametinib (first compound 1 µM) it was 0.2; with Etoposide + Linsitinib (first compound 0.01 µM), 0.968; with Etoposide + Linsitinib (first compound 0.03162 µM), 1.06. Further, the relative viability came out at 1 with Etoposide + Linsitinib (first compound 0.1 µM); 0.703 with Etoposide + Linsitinib (first compound 0.3162 µM); 0.293 with Etoposide + Linsitinib (first compound 1 µM); 0.378 with Etoposide + Decitabine (first compound 0.01 µM); 0.383 with Etoposide + Decitabine (first compound 0.03162 µM); 0.306 with Etoposide + Decitabine (first compound 0.1 µM). Besides, the relative viability in the test with Etoposide + Decitabine (first compound 0.3162 µM) is 0.307; with Etoposide + Decitabine (first compound 1 µM), 0.194.
In the case of NCI-H23, the relative viability with Bleomycin + Luminespib (first compound 0.01 µM) was 0.228; with Bleomycin + Luminespib (first compound 0.03162 µM) it was 0.2; with Bleomycin + Luminespib (first compound 0.1 µM) it was 0.211; with Bleomycin + Luminespib (first compound 0.3162 µM), 0.176; with Bleomycin + Luminespib (first compound 1 µM) it was 0.216; in the test with Etoposide + Trametinib (first compound 0.01 µM), 0.299. Also, the relative viability came to 0.342 with Etoposide + Trametinib (first compound 0.03162 µM); 0.309 with Etoposide + Trametinib (first compound 0.1 µM); 0.265 with Etoposide + Trametinib (first compound 0.3162 µM); 0.24 in the test with Etoposide + Trametinib (first compound 1 µM); 0.504 with Etoposide + Linsitinib (first compound 0.01 µM); 0.645 with Etoposide + Linsitinib (first compound 0.03162 µM). Besides, the relative viability in the test with Etoposide + Linsitinib (first compound 0.1 µM) was 0.364; with Etoposide + Linsitinib (first compound 0.3162 µM), 0.409; with Etoposide + Linsitinib (first compound 1 µM), 0.191; with Etoposide + Decitabine (first compound 0.01 µM), 0.333; in the test with Etoposide + Decitabine (first compound 0.03162 µM), 0.317; in the test with Etoposide + Decitabine (first compound 0.1 µM), 0.291. Moreover, the relative viability with Etoposide + Decitabine (first compound 0.3162 µM) was found to be 0.235; in the test with Etoposide + Decitabine (first compound 1 µM), 0.242.
Take NCI-H322M: the relative viability with Bleomycin + Luminespib (first compound 0.01 µM) was 0.781; with Bleomycin + Luminespib (first compound 0.03162 µM), 0.783; in the test with Bleomycin + Luminespib (first compound 0.1 µM) it was 0.709; with Bleomycin + Luminespib (first compound 0.3162 µM), 0.442; with Bleomycin + Luminespib (first compound 1 µM), 0.42; in the test with Etoposide + Trametinib (first compound 0.01 µM), 0.531. The relative viability was determined as 0.564 with Etoposide + Trametinib (first compound 0.03162 µM); 0.469 with Etoposide + Trametinib (first compound 0.1 µM); 0.457 in the test with Etoposide + Trametinib (first compound 0.3162 µM); 0.47 with Etoposide + Trametinib (first compound 1 µM); 0.902 with Etoposide + Linsitinib (first compound 0.01 µM); 0.993 with Etoposide + Linsitinib (first compound 0.03162 µM). Also, the relative viability with Etoposide + Linsitinib (first compound 0.1 µM) is 0.727; with Etoposide + Linsitinib (first compound 0.3162 µM), 0.845; with Etoposide + Linsitinib (first compound 1 µM), 0.565; in the test with Etoposide + Decitabine (first compound 0.01 µM), 0.71; with Etoposide + Decitabine (first compound 0.03162 µM), 0.696; with Etoposide + Decitabine (first compound 0.1 µM), 0.584. Further, the relative viability turned out to be 0.623 with Etoposide + Decitabine (first compound 0.3162 µM) and 0.563 in the test with Etoposide + Decitabine (first compound 1 µM).
Turning to NCI-H358, the relative viability came out at 0.307 with Bleomycin + Luminespib (first compound 0.01 µM); 0.251 in the test with Bleomycin + Luminespib (first compound 0.03162 µM); 0.27 in the test with Bleomycin + Luminespib (first compound 0.1 µM); 0.23 with Bleomycin + Luminespib (first compound 0.3162 µM); 0.283 with Bleomycin + Luminespib (first compound 1 µM); 0.141 with Etoposide + Trametinib (first compound 0.01 µM). Further, the relative viability in the test with Etoposide + Trametinib (first compound 0.03162 µM) was 0.122; with Etoposide + Trametinib (first compound 0.1 µM), 0.119; in the test with Etoposide + Trametinib (first compound 0.3162 µM) it was 0.118; in the test with Etoposide + Trametinib (first compound 1 µM), 0.0938; in the test with Etoposide + Linsitinib (first compound 0.01 µM) it was 0.622; with Etoposide + Linsitinib (first compound 0.03162 µM), 0.792. The relative viability with Etoposide + Linsitinib (first compound 0.1 µM) came out at 0.561; with Etoposide + Linsitinib (first compound 0.3162 µM), 0.202; with Etoposide + Linsitinib (first compound 1 µM) it was 0.181; with Etoposide + Decitabine (first compound 0.01 µM), 0.229; with Etoposide + Decitabine (first compound 0.03162 µM), 0.212; with Etoposide + Decitabine (first compound 0.1 µM) it was 0.155. Moreover, the relative viability in the test with Etoposide + Decitabine (first compound 0.3162 µM) worked out at 0.136; in the test with Etoposide + Decitabine (first compound 1 µM), 0.103.

The record behind these values is the supplement of paper PMC10307832.
